Two compounds from patent US20240342111A1, “ISOMER-SPECIFIC NEUROPROTECTIVE EFFECT OF NATURAL RESERVATROL” (priority 2021, published 2024) can be followed below.

For test [1], the system named is OGG1. The test is described as follows: Immunoblot for OGG1 protein. Type of test: cell-based, rat. The note with it: 5-50 μM, 4 hours. For orientation: Immunoblotting shows a protein as a band on a membrane.
Test [2] concerns Rat cortical neurons. The test is described as follows: DNA damage (etoposide)-induced neurotoxicity, MTT assay. The note with it: 5 μM etoposide 24 hours, pre-treatment 16 hours. Type of test: cell-based. In general terms: Formazan colour is commonly taken as a measure of viable cells.
Test [3] relates to Rat cortical neurons. The test is described as follows: Oxidative stress (H2O2)-induced toxicity, viability. The test is classed as cell-based. The conditions noted are these: 400 μM H2O2 24 hours, pre-treatment 16 hours.
Test [4] relates to Rat cortical neurons transfected with PARP1 siRNA. Nature of the test: siRNA knockdown of PARP1, trans-RSV neurotoxicity, MTT assay. The test is classed as cell-based. The note with it: trans-RSV 50 μM, 72 hours. As for the experimental part: Cell viability was assessed and quantified using MTT assay.
Primary cortical neuron cultures were obtained from E18 Sprague Dawley rats' cortices, which were dissected in Hibernate E (BrainBits) and dissociated using the Neural Tissue Dissociation kit (Miltenyi Biotec). For this, minced cortices were incubated in a pre-warmed enzyme mix at 37° C. for 15 min; tissues were then triturated and strained using a 40 μm cell strainer. After washing and centrifugation, neurons were seeded in 50 μg/ml poly-D-Lysine (Sigma Aldrich) coated tissue culture plates. NBActive-1 medium (BrainBits) supplemented with 100 U/ml of Penicillin-Streptomycin (Life Technologies), 2 mM L-Glutamine (Life Technologies), and 1 X N21 supplement (R&D Systems) was used as culture medium. Control (AM4635), TyrRS (s443), PARP1 (s130207) siRNA for transfection were obtained from Invitrogen. […]
Rat cortical neurons (DIV 10-11) were exposed to different treatments after seeding 20,000 cells/well in 96-well plates. Cell viability was then assessed at 48 hours after the initial exposure to NMDA. […] The percentage of MTT reduced as measured by the difference between the absorbances at 570 nm read in a spectrophotometer (Spectramax 190R Molecular Devices, UK). The percentage of reduction of MTT was calculated comparing the difference of the absorbance at 570 of each sample. […]

For test [5], the system named is HPF1. Nature of the test: Immunoblot for HPF1 protein. The test is classed as cell-based, rat. The note with it: high dose 25 μM, up to 16 hr, time-dependent. The text has this:
Ac-K56-H3 is a marker of genomic stability, see Driscoll, R., Hudson, A. & Jackson, S. P. Yeast Rtt109 promotes genome stability by acetylating histone H3 on lysine 56. Science 315, 649-652, doi:10.1126/science.1135862 (2007), and DNA damage, see Tjeertes, J. V., Miller, K. M. & Jackson, S. P. Screen for DNA-damage-responsive histone modifications identifies H3K9Ac and H3K56Ac in human cells. EMBO J 28, 1878-1889, doi:10.1038/emboj.2009.119 (2009), and inhibition of PARP1 causes the downregulation of RAD51, see Hegan, D. C. et al. Inhibition of poly(ADP-ribose) polymerase down-regulates BRCA1 and RAD51 in a pathway mediated by E2F4 and p130. […] The western blot images of the protein levels of HPF1 was quantified using ImageJ.
Cultured neurons (DIV 9-10) were washed once with cold 1×PBS and lysed in cell lysis buffer (20 mM Tris-HCl (pH 7.5), 150 mM NaCl, 1 mM Na2EDTA, 1 mM EGTA, 1% Triton, 2.5 mM sodium pyrophosphate, 1 mM beta-glycerophosphate, 1 mM Na3VO4, 1 μg/ml leupeptin supplemented with protease inhibitor). […] Lysates were quantified using Bio-Rad Protein Assay, and an equal amount of protein was loaded onto a 4 to 12% gradient gel (NuPAGE-Invitrogen). […] Quantification for the western blots was done using ImageJ (Version 1.53c).

Consider `Oc1ccc(/C=C\c2cc(O)cc(O)c2)cc1` [cis-RSV, cis-resveratrol], for which the OGG1 protein levels entry in test [1] is “downregulated both the protein levels of OGG1 and the levels of 8-oxo-dG”. The “protection from DNA damage-induced neurotoxicity” value in test [2] is given as “protects neurons from DNA damage-induced neurotoxicity”. Further, the “protection from toxicity induced by oxidative stress” value in test [3] is on record as “protects neurons from toxicity induced by oxidative stress”.

`Oc1ccc(/C=C/c2cc(O)cc(O)c2)cc1` [trans-RSV, trans-resveratrol]: in test [4], the “effect of PARP1 siRNA knockdown on neurotoxicity” value is “protected against trans-RSV-mediated neurotoxicity”. Further, the HPF1 protein levels result in test [5] is recorded as “downregulated the protein levels of the histone poly-ADP-ribosylation factor 1 (HPF1)”.
